In US10278942B2 (PELOTON THERAPEUTICS, INC., priority 2015, dated 2019):

Columns and labels:
[1] = tested on: 786-O-Hif-Luc cells; assay: Luciferase Assay (HIF responsive elements reporter); conditions: read-out: Mean Luciferase EC50 (nM), 786-O-Hif-Luc cells
Procedure: A pool of infected cells were then selected against 2 μg/mL of puromycin (P8833, Sigma) for 10 days followed by limited dilution to select single clones. […] Each concentration was tested in triplicate. After about 24 hours, luciferase activity was determined using ONE-Glo Luciferase Assay Reagent (E6110, Promega) following the manufacturer's recommended procedure. EC50 were calculated using Dotmatics software.

[2] = target: T1, HIF-2α HIS TAG-PASB Domain (Homo sapiens, UniProt Q99814); assay: HIF-2α Scintillation Proximity Assay (SPA); format: binding; conditions: read-out: Scintillation Proximity Assay IC50
T1 construct: 100 nM HIF-2α HIS TAG-PASB Domain
Outline: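 IC50 values rest on percent inhibition, where the sample signal is scaled between high and low controls. Wells contain about 100 μL: compound dispensed as 2 μL of DMSO solution, 88 μL protein-probe mix and 10 μL of beads.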

T1 sequence (Q99814 240-350 limits assumed): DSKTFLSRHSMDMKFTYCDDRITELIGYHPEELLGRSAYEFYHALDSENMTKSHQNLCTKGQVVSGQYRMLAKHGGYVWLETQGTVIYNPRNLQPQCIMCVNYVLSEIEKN

| Compound | EC50 [1] [nM] | IC50 [2] [nM] |
| --- | --- | --- |
| Cc1cc(C#N)cc(Oc2ccc3c(c2C(F)F)[C@@H](O)C(F)(F)S3(=O)=O)c1 [Compound 392] | 50 to 249 | < 50 |
| N#Cc1cc(F)cc(Oc2ccc(S(=O)(=O)C(F)F)c(C#N)c2Cl)c1 [Compound 39] | 250 to 1000 | 50 to 249 |
| N#Cc1cc(F)cc(Oc2ccc(S(=O)(=O)CCO)c3c2CC(F)(F)C3O)c1 (stereo not drawn) [Compound 250] | > 1000 | > 1000 |
| O=S1(=O)c2ccc(Oc3cncc(Cl)c3)c(Cl)c2[C@@H](O)C1(F)F [Compound 432] | 250 to 1000 | 250 to 1000 |
| C[C@]1(C#N)C[C@H](Oc2ccc(S(=O)(=O)C(F)(F)F)c3c2CC(F)(F)[C@H]3O)C1 [Compound 788] | 250 to 1000 | 50 to 249 |
| N#Cc1cccc(Oc2ccc3c(c2Br)[C@@H](O)C(F)(F)S3(=O)=O)c1 [Compound 430] | < 50 | < 50 |
| N#Cc1c(Oc2cc(F)cc(F)c2)ccc2c1C(O)C(F)(F)S2(=O)=O (stereo not drawn) [Compound 443] | 250 to 1000 | < 50 |
| CS(=O)(=O)c1ccc(Oc2cc(F)cc(C#N)c2)c2c1[C@H](O)C(F)(F)[C@H]2F [Compound 293] | 250 to 1000 | 250 to 1000 |
| Cc1c(Oc2cc(F)cc(C#N)c2)ccc(S(=O)(=O)C(F)(F)F)c1CO [Compound 146] | 250 to 1000 | 50 to 249 |
| Cc1cc(S(=O)(=O)C(F)F)ccc1Oc1cc(F)cc(C#N)c1 [Compound 136] | > 1000 | 50 to 249 |
| O[C@H]1c2c(C(F)(F)F)ccc(OCC(F)F)c2C[C@@H]1F [Compound 697] | 50 to 249 | 50 to 249 |
| CCOc1ccc(S(=O)(=O)C(F)(F)F)c2c1CC(F)(F)C2O (stereo not drawn) [Compound 591] | 250 to 1000 | 250 to 1000 |
| NC1c2cc(Oc3cc(F)cc(Cl)c3)ccc2S(=O)(=O)C1(F)F (stereo not drawn) [Compound 358] | > 1000 | 50 to 249 |
| N#Cc1cncc(Oc2ccc(S(N)(=O)=O)c3c2CC(F)(F)[C@H]3O)c1 [Compound 253] | > 1000 | > 1000 |
| COc1cc(F)cc(Oc2ccc(S(=O)(=O)C(F)F)c3c2CC[C@H]3O)c1 [Compound 6] | 50 to 249 | < 50 |
| CCCOc1ccc(I)c2c1C[C@@H](F)[C@H]2O [Compound 683] | > 1000 | > 1000 |
| O=S(=O)(c1ccc(OC2CCC2)c2c1C(O)C(F)(F)C2)C(F)(F)F (stereo not drawn) [Compound 602] | < 50 | < 50 |
| O=S(=O)(c1ccc(OCc2ccccn2)c2c1C(O)C(F)(F)C2)C(F)(F)F (stereo not drawn) [Compound 665] | > 1000 | > 1000 |
| O=S(=O)(c1ccc(Oc2cncc(Cl)c2)c2c1[C@H](O)CC2)C(F)F [Compound 3] | 250 to 1000 | 250 to 1000 |
| CC(C)Oc1ccc(S(=O)(=O)C(F)(F)F)c2c1CC(F)(F)C2O (stereo not drawn) [Compound 593] | 50 to 249 | < 50 |
| CS(=O)(=O)c1ccc(OC2CCC2)c2c1[C@H](O)C(F)(F)[C@@H]2F [Compound 753] | 250 to 1000 | < 50 |
| O=S(=O)(c1ccc(C2=CC(O)CCC2)c2c1[C@H](O)C(F)(F)C2)C(F)(F)F (stereo partly drawn) [Compound 481, (1S)-2,2-difluoro-4-(3-hydroxycyclohex-1-en-1-yl)-7-((trifluoromethyl)sulfonyl)-2,3-dihydro-1H-inden-1-ol] | > 1000 | 250 to 1000 |
| N#Cc1cc(F)cc(Nc2ccc(S(=O)(=O)C(F)(F)F)c3c2CCC3O)c1 (stereo not drawn) [Compound 505] | 250 to 1000 | 250 to 1000 |
| Cc1c(S(C)(=O)=O)ccc(Oc2cc(F)cc(Cl)c2)c1C(F)F [Compound 53] | > 1000 | 250 to 1000 |
| O/N=C1/c2c(C(F)(F)F)ccc(OCC(F)F)c2[C@@H](F)C1(F)F [Compound 669] | 250 to 1000 | 50 to 249 |
| COCCOc1ccc(S(=O)(=O)C(F)(F)F)c2c1CC(F)(F)C2O (stereo not drawn) [Compound 595] | 250 to 1000 | 250 to 1000 |
| O=Cc1c(S(=O)(=O)C(F)(F)F)ccc(Oc2cc(F)cc(Cl)c2)c1Br [Compound 101] | 250 to 1000 | < 50 |

| Compound | EC50 [1] [nM] | IC50 [2] [nM] |
| --- | --- | --- |
| CC(Oc1ccc(S(=O)(=O)C(F)(F)F)c2c1CC(F)(F)C2O)C1CC1 (stereo not drawn) [Compound 746] | < 50 | < 50 |
| O=S(=O)(c1ccc(OC2CCNCC2)c2c1C(O)C(F)(F)C2)C(F)(F)F (stereo not drawn) [Compound 607] | > 1000 | < 50 |
| O=S1(=O)c2ccc(Oc3cccc4cn[nH]c34)c(C(F)F)c2C(O)C1(F)F (stereo not drawn) [Compound 441] | > 1000 | > 1000 |
| O=S1(=O)c2ccc(Oc3ccc(F)c(F)c3)c(C(F)F)c2[C@@H](O)C1(F)F [Compound 436] | 50 to 249 | < 50 |
| O=S(=O)(c1ccc(Oc2cc(F)c(F)c3[nH]ncc23)c2c1C(O)C(F)(F)C2)C(F)(F)F (stereo not drawn) [Compound 261] | > 1000 | 250 to 1000 |
| O=S(=O)(c1ccc(Oc2cc(F)cc(Cl)c2)c2c1[C@H](O)CC2)C(F)(F)F [Compound 56] | 50 to 249 | < 50 |
| O=S(=O)(c1ccc(C2CC2)c2c1C(O)C(F)(F)C2)C(F)(F)F (stereo not drawn) [Compound 513] | > 1000 | 250 to 1000 |
| N[C@H]1C[C@@H](Oc2ccc(S(=O)(=O)C(F)(F)F)c3c2CC(F)(F)[C@H]3O)C1 [Compound 724] | > 1000 | > 1000 |
| O=S(=O)(c1ccc(OC2CCC2)c2c1C(O)CC2)C(F)(F)F (stereo not drawn) [Compound 601] | > 1000 | 250 to 1000 |
| O=S(=O)(c1ccc(Nc2cc(F)cc(F)c2)c2c1C(O)CC2)C(F)(F)F (stereo not drawn) [Compound 506] | > 1000 | 250 to 1000 |
| N#Cc1c(Oc2cc(F)cc(Cl)c2)ccc2c1[C@@H](O)CS2(=O)=O [Compound 348] | 50 to 249 | < 50 |
| C[C@]1(C#N)C[C@@H](Oc2ccc(S(=O)(=O)C(F)(F)F)c3c2CC(F)(F)[C@H]3O)C1 [Compound 789] | < 50 | < 50 |
| CS(=O)(=O)c1ccc(Oc2cc(F)cc(C#N)c2)c2c1C(=O)C(F)(Cl)C2 (stereo not drawn) [Compound 269] | > 1000 | 250 to 1000 |
| CC(C)(COc1ccc(S(=O)(=O)C(F)(F)F)c2c1CC(F)(F)[C@H]2O)S(C)(=O)=O [Compound 723] | > 1000 | > 1000 |
| O=S(=O)(c1ccc(Oc2cc(F)cc(F)c2)c2c1CCC2)C(F)F [Compound 20] | > 1000 | > 1000 |
| CCCOc1ccc(C(F)(F)F)c2c1CC(F)(F)/C2=N\O [Compound 703] | > 1000 | 250 to 1000 |
| O=S(=O)(c1ccc(Oc2cc(F)cc(Cl)c2)c(Br)c1/C=N/O)C(F)(F)F [Compound 107] | 250 to 1000 | 50 to 249 |
| N#Cc1cc(F)cc(Oc2ccc(S(=O)(=O)C(F)(F)F)c3c2[C@@H](N)C[C@H]3O)c1 [Compound 279] | > 1000 | > 1000 |
| O=S(=O)(c1ccc(-c2ccccc2Cl)c2c1[C@H](O)C(F)(F)C2)C(F)(F)F [Compound 565] | > 1000 | > 1000 |
| COC(C)COc1ccc(S(=O)(=O)C(F)(F)F)c2c1CC(F)(F)C2O (stereo not drawn) [Compound 626] | 50 to 249 | < 50 |
| O=S(=O)(c1ccc([C@@H]2CCC[C@H](O)C2)c2c1[C@H](O)C(F)(F)C2)C(F)(F)F [Compound 482, (S)-2,2-difluoro-4-((1R,3S)-3-hydroxycyclohexyl)-7-((trifluoromethyl)sulfonyl)-2,3-dihydro-1H-inden-1-ol] | 250 to 1000 | 250 to 1000 |
| CS(=O)(=O)c1ccc(O[C@H]2C[C@@H](O)C2)c2c1[C@H](O)C(F)(F)[C@@H]2F [Compound 735] | > 1000 | 250 to 1000 |
| O=S(=O)(c1ccc(CC2CCCCC2)c2c1C(O)C(F)(F)C2)C(F)(F)F (stereo not drawn) [Compound 509] | > 1000 | < 50 |
| O[C@@H]1CCc2c(Oc3cc(F)cc(F)c3)ccc(C(F)(F)F)c21 [Compound 58] | 50 to 249 | < 50 |
| N#CC1(COc2ccc(S(=O)(=O)C(F)(F)F)c3c2CC(F)(F)[C@H]3O)CCC1 [Compound 790] | < 50 | < 50 |
| O=S(=O)(c1ccc(OC2CCC(O)CC2)c2c1C(O)C(F)(F)C2)C(F)(F)F (stereo not drawn) [Compound 618] | > 1000 | > 1000 |
| CS(=O)(=O)c1ccc(OC(CF)CF)c2c1[C@H](O)C(F)(F)[C@@H]2F [Compound 762] | 250 to 1000 | 250 to 1000 |
